# Test results published in paper PMC2225441, “Partial Restoration of Mutant Enzyme Homeostasis in Three Distinct Lysosomal Storage Disease Cell Lines by Altering Calcium Homeostasis” (PLoS Biology, 2008).
# Key:
# [1] = test system: cytoplasmic and ER lumenal chaperones; assay type: cell-based, human; conditions: 10 μM, 7 d, Figure S5
# Procedure: (§1) Total RNA was extracted from the cells using RNeasy Mini Kit (Qiagen #74104). cDNA was synthesized from 500 ng of total RNA using QuantiTect Reverse Transcription Kit (Qiagen #205311). Quantitative PCR reactions were performed using QuantiTect SYBR Green PCR Kit (Qiagen #204143) and corresponding primers in the ABI PRISM 7900 system (Applied Biosystems). The forward and reverse primers for GC, Hsp40, Hsp70, Hsp90, HIP, HOP, BiP, GRP94, calnexin (CNX), and calreticulin (CRT), and an endogenous housekeeping gene large ribosomal protein (RiboP) are listed in Table S1. Samples were heated for 15 min at 95 °C and amplified in 45 cycles of 15 s at 94 °C, 30 s at 59 °C, and 30 s at 72 °C. Analysis was done using SDS2.1 software (Applied Biosystems). Threshold cycle (CT) was extracted from the PCR amplification plot. The ΔCT value was used to describe the difference between the CT of a target gene and the CT of the housekeeping gene: ΔCT = CT (target gene) – CT (housekeeping gene). The relative mRNA expression level of a target gene of diltiazem-treated cells was normalized to that of untreated cells: Relative mRNA expression level = 2 exp [–(ΔCT (treated cells) – ΔCT (untreated cells))].
# Hsp40, Hsp70, Hsp90, HIP, HOP, BiP, GRP94, calnexin (CNX), and calreticulin (CRT) were probed using corresponding primer pairs. Large ribosomal protein (RiboP) served as a housekeeping gene control.
# L444P GC = assay: intact cell GC activity assay in homozygous L444P GC patient-derived fibroblasts; assay type: cell-based, human
# GC mRNA = assay: quantitative RT-PCR of GC mRNA in L444P GC fibroblasts; assay type: cell-based, human; conditions: 10 μM; 6 h, 12 h, 1 d, 3 d, and 5 d
# Procedure: as §1
# GC = GC activity in Gaucher patient-derived fibroblasts, effective culture concentration; assay type: cell-based, human
# Procedure: The intact cell GC activity assay has been previously described. Briefly, cells were plated into 48-well assay plates (500 μl per well). After cell attachment, the media was replaced by media containing small molecules. Media was changed every 3 d. After incubation at 37 °C for the indicated amount of time, the intact cell GC activity assay was performed. The monolayers were washed by DPBS. The reaction was started by the addition of 150 μl of 3 mM 4-methylumbelliferyl β-D-glucopyranoside in 0.2 M acetate buffer (pH 4.0) to each well, followed by incubation at 37 °C for 1–7 h. CBE was used as a control to evaluate the extent of nonspecific GC activity. […] Liberated 4-methylumbelliferone was measured (excitation 365 nm, emission 445 nm) with a SpectraMax Gemini plate reader (Molecular Devices). The lysed cell GC activity assay has been previously described. […] Total cell protein was measured using the Micro BCA assay reagent (Pierce #23235). Thirty μg of total cell protein was assayed for the GC activity in 100 μl of 0.1 M acetate buffer (pH 5.0) containing 3 mM 4-methylumbelliferyl β-D-glucopyranoside in the presence of 0.15% Triton X-100 (v/v, Fisher) and 0.15% taurodeoxycholate (w/v, Calbiochem). CBE was used as a control to evaluate the extent of nonspecific GC activity. […] The GC activity assay for recombinant WT GC enzymes has been previously described. […]
# [2] = molecular target: T1, Cerezyme, a recombinant WT GC protein (Homo sapiens, UniProt P04062, R534H); assay: GC activity assay for recombinant WT GC enzyme (Cerezyme); assay type: biochemical; conditions: 0.01–1000 μM
# T1 construct: purchased Genzyme
# T1 sequence (P04062 40-536 R534H): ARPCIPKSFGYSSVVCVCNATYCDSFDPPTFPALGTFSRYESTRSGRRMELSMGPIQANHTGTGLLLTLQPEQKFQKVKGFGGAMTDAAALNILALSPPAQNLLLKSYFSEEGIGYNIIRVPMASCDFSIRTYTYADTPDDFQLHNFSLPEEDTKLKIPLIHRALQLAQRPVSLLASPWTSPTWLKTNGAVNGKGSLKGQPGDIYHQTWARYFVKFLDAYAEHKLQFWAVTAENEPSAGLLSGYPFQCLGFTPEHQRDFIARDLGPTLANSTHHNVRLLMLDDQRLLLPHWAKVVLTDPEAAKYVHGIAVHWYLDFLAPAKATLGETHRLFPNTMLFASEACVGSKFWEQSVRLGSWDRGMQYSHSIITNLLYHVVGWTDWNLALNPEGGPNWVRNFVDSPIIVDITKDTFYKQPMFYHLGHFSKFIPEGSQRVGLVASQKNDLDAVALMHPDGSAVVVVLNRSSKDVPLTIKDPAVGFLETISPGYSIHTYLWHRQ
# S66W/V131M SGSH = assay: intact cell SGSH activity assay in S66W/V131M MPS cells; assay type: cell-based, human; conditions: 50 μM; 5-d treatment; calculated from literature specific activity of S66W [27]
# [3] = cited from earlier work
# [4] = test system: cytoplasmic and ER lumenal chaperones; assay: Western blot of chaperones in L444P GC fibroblasts; assay type: cell-based, human; conditions: 10 μM
# Procedure: Total cell protein was measured using the Micro BCA assay reagent. Endo H (New England Biolabs #P0703) was used to digest the cell lysates according to the company instructions. The cell lysates containing equal amount of total protein were separated by 10% SDS-PAGE. Western blot analysis was performed with proper antibodies. Mouse monoclonal anti-GC 8E4 [57] was kindly provided by Klaus-Peter Zimmer (Children's Hospital of the University of Münster, Münster, Germany). Mouse monoclonal anti-GC 2E2 was from Novus Biologicals (#H00002629-M01). Antibodies directed against calnexin (#SPA-860), calreticulin (#SPA-601), Hsp40 (#SPA-400), Hsp70 (#SPA-812), and Hsp90 (#SPA-830) were from Stressgen. Antibodies directed against BiP (#SC-13968) and GRP94 (#SC-11402) were from Santa Cruz Biotechnology. Mouse monoclonal anti-β actin AC-15 was from Sigma (#A1978). Secondary antibodies (#31430 for goat anti-mouse and #31460 for goat anti-rabbit) were from Pierce. Bands were visualized using the SuperSignal West Pico Chemiluminescent Substrate (Pierce #34078) or SuperSignal West Femto Maximum Sensitivity Substrate (Pierce #34095).
smiles,measurement,setting,value
COc1ccc([C@@H]2Sc3ccccc3N(CCN(C)C)C(=O)[C@@H]2OC(C)=O)cc1 [diltiazem],Hsp40 mRNA expression level,[1],similarly increased
same,BiP and Hsp90 mRNA expression levels,[1]; compared with L444P cells,less of an increase
same,maximum increase of L444P lysosomal GC activity,"L444P GC; 10 μM, 7 d, intact cell assay, Figure 3D",2.3 fold
same,L444P GC activity after short incubation,"L444P GC; 1–100 μM, 1 h, intact cell assay, Figure S3",No activity increase was observed
same,increase of L444P GC activity,"L444P GC; additional type II cell line (Figure 1C middle panel), 15 μM, 5 d",2.0 fold
same,increase of L444P GC activity,"L444P GC; additional type II cell line (Figure 1C middle panel), 15 μM, 7 d",2.5 fold
same,"L444P GC activity, screen of VGCC blockers, ionotropic glutamate receptor inhibitors and other calcium channel blockers","L444P GC; intact cell GC activity assay, only the named compounds increased activity",increased L444P GC activity significantly
same,L444P GC activity as % of normal cellular WT GC activity,"L444P GC; type II patient cell line (Figure 1C left panel), 10 μM, 5-d incubation",≈ 24%
same,maximum increase of L444P GC activity,"L444P GC; type II patient cell line (Figure 1C left panel), 10 μM, 5-d incubation, vs untreated cells",2.0 fold
same,maximum increase of L444P GC activity,"L444P GC; type II patient cell line (Figure 1C left panel), 10 μM, 7-d incubation",2.3 fold
same,maximum increase of L444P GC activity,"L444P GC; type III cell line (Figure 1C right panel), 10 μM, 5-d incubation",2.1 fold
same,increase of L444P GC activity,"L444P GC; type III cell line (Figure 1C right panel), 10 μM, 7-d incubation",2.3 fold
same,GC mRNA expression level vs untreated,GC mRNA,No significant differences
same,culture concentration of best efficacy at increasing GC activity,GC,10 µM
same,lowest effective cell culture media concentration,GC; Figures 2 and 3,0.1 to 1 µM
same,inhibition of Cerezyme,[2],lack of inhibition
same,S66W/V131M sulfamidase activity as % of WT sulfamidase activity,S66W/V131M SGSH,≈ 30%
same,bioavailable concentration in blood plasma,[3],bioavailable in the μM concentration range
same,"protein expression levels of BiP, Hsp40, and Hsp90",[4]; 7-d treatment,increased protein expression levels
same,"protein expression levels of GRP94, Hsp70, calnexin, and calreticulin",[4]; 4 d and 7 d,not changed significantly
